The text below walks through data of PubChem BioAssay (NCI).

Molecules are shown by their SMILES.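 1) Cells in 96-well plates. 2) Compound, 48 h, 5 concentrations. 3) Linear interpolation between surrounding doses. 4) Unreached endpoint = highest concentration. Abbreviation: GI50, concentration required for 50% inhibition of growth. TGI: total growth inhibition.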

Some test systems named below: COLO 205 colon; SF-539 CNS; HL-60(TB) leukemia; BT-549 breast; SNB-19 CNS; HS 578T breast; HCC-2998 colon; A549 NSCLC; RXF 393 renal; CCRF-CEM leukemia.
Assay in all cases: DTP human tumour cell line panel, 48 h

As to `CC/C(C)=C1\OC(=O)C(C)C(O)C(Cc2cccnc2)NC(=O)C(NC(=O)c2ncccc2O)C(C)OC1=O` (stereo not given), the concentration for total growth inhibition (TGI) in the test with COLO 205 colon, with SF-539 CNS, with HL-60(TB) leukemia, in the test with BT-549 breast, with SNB-19 CNS and with HS 578T breast was greater than 100 µM each time. For the same compound, the TGI in the test on HCC-2998 colon and with A549 NSCLC was greater than 100 µM in each case.

As for `COc1cccc2[nH]c(-c3ccccn3)nc12`, the concentration for total growth inhibition (TGI) with COLO 205 colon, with SF-539 CNS, in the test on RXF 393 renal, with BT-549 breast, in the test with SNB-19 CNS and with HS 578T breast was greater than 100 µM each time. Besides, the TGI in the test with HCC-2998 colon and in the test on A549 NSCLC was greater than 100 µM throughout.

With `Nc1nnc(Cn2c(-c3ccccc3)nc3ccc(Br)cc3c2=O)s1`, the GI50 (usually the concentration that inhibits growth by half) in the test with CCRF-CEM leukemia is 16.3 µM; with COLO 205 colon, 64.6 µM; with SF-539 CNS, 32.9 µM; in the test with BT-549 breast it was 58.3 µM; in the test on SNB-19 CNS, greater than 100 µM; with HS 578T breast, 41.4 µM. For the same compound, the values for the GI50 with HCC-2998 colon and in the test on A549 NSCLC were 42.6 µM and 25 µM, respectively. Also, the TGI (in general, the concentration giving total growth inhibition) was 67.6 µM in the test with CCRF-CEM leukemia; greater than 100 µM in the test with COLO 205 colon; greater than 100 µM in the test on SF-539 CNS; greater than 100 µM in the test on BT-549 breast; greater than 100 µM in the test on SNB-19 CNS; greater than 100 µM with HS 578T breast. In addition, the TGI in the test with HCC-2998 colon and in the test on A549 NSCLC was greater than 100 µM throughout.

Turning to `COc1ccc(C(=O)c2cc3c(N)c(C(=O)Nc4cccc(Cl)c4C)sc3nc2C)cc1`, the GI50 in the test on CCRF-CEM leukemia is 0.0889 µM; in the test with COLO 205 colon, 0.109 µM; in the test with SF-539 CNS, 0.0679 µM; in the test on HL-60(TB) leukemia, 0.0759 µM; with BT-549 breast, 0.25 µM; with SNB-19 CNS, 0.117 µM. The results for the GI50 with HS 578T breast, in the test on HCC-2998 colon and in the test on A549 NSCLC were 0.0832 µM, 0.28 µM and 0.136 µM, respectively. Besides, the concentration for total growth inhibition (TGI) with CCRF-CEM leukemia is greater than 25 µM; with COLO 205 colon, 7.13 µM; with SF-539 CNS, 0.169 µM; with HL-60(TB) leukemia it was 0.226 µM; with BT-549 breast, greater than 25 µM; in the test on SNB-19 CNS, greater than 25 µM. The concentration for total growth inhibition (TGI) in the test on HS 578T breast, in the test with HCC-2998 colon and in the test with A549 NSCLC was greater than 25 µM in each case.

Take `COc1ccc(C(=O)COc2cccc(/C=C3\CSc4ccc(C)cc4C3=O)c2)cc1`: the GI50 was 2.76 µM with CCRF-CEM leukemia; 31.8 µM in the test with COLO 205 colon; greater than 100 µM with SF-539 CNS; 19.9 µM in the test with RXF 393 renal; 5.44 µM in the test with HL-60(TB) leukemia; 27.6 µM with BT-549 breast. Moreover, the GI50 was greater than 100 µM with SNB-19 CNS, 40.4 µM in the test with HS 578T breast and greater than 100 µM in the test with A549 NSCLC. The TGI in the test on CCRF-CEM leukemia was greater than 100 µM; in the test on COLO 205 colon, greater than 100 µM; in the test with SF-539 CNS, greater than 100 µM; in the test with RXF 393 renal it was 49 µM; in the test on HL-60(TB) leukemia, 43.3 µM; in the test with BT-549 breast, greater than 100 µM. Also, the concentration for total growth inhibition (TGI) in the test with SNB-19 CNS, in the test with HS 578T breast and with A549 NSCLC was greater than 100 µM each time.

In the case of `Cn1c(=S)c2[nH]c(SCCN3CCCC3)nc2n(C)c1=O`, the TGI with CCRF-CEM leukemia, in the test on COLO 205 colon, with SF-539 CNS, in the test on RXF 393 renal, in the test on HL-60(TB) leukemia and with BT-549 breast was greater than 100 µM throughout. The total growth inhibition concentration (TGI) with SNB-19 CNS, in the test with HS 578T breast and in the test with A549 NSCLC was greater than 100 µM each time.

As to `CCCCC#CC#Cc1cccc(=O)o1`, the GI50 in the test with CCRF-CEM leukemia is 15.4 µM; in the test on COLO 205 colon it was 17.7 µM; in the test on SF-539 CNS, 24.6 µM; in the test with RXF 393 renal, 32.9 µM; in the test on HL-60(TB) leukemia, 15.6 µM; in the test on BT-549 breast, 20.3 µM. Further, the results for the GI50 with SNB-19 CNS, in the test on HS 578T breast and in the test with A549 NSCLC were 12.6 µM, 25.9 µM and 39.2 µM, respectively. Also, the TGI was greater than 100 µM in the test with CCRF-CEM leukemia; 35 µM with COLO 205 colon; 51.6 µM with SF-539 CNS; greater than 100 µM in the test on RXF 393 renal; 43.1 µM in the test on HL-60(TB) leukemia; 46.9 µM in the test with BT-549 breast. The TGI in the test on SNB-19 CNS was 27.7 µM; with HS 578T breast it was 51.6 µM; in the test with A549 NSCLC, greater than 100 µM.

As for `Cc1nc(N)sc1C(=O)Nc1cc(C(=O)NCCCN(C)C)n(C)c1`, the GI50 with CCRF-CEM leukemia was greater than 100 µM; in the test with COLO 205 colon, greater than 100 µM; with SF-539 CNS, greater than 100 µM; with RXF 393 renal, greater than 100 µM; in the test with HL-60(TB) leukemia, greater than 100 µM; in the test on BT-549 breast, 76.7 µM. The GI50 in the test on SNB-19 CNS, in the test with HCC-2998 colon and with A549 NSCLC was greater than 100 µM throughout. Also, the TGI in the test on CCRF-CEM leukemia, in the test on COLO 205 colon, with SF-539 CNS, in the test with RXF 393 renal, with HL-60(TB) leukemia and with BT-549 breast was greater than 100 µM each time. The concentration for total growth inhibition (TGI) in the test on SNB-19 CNS, in the test with HCC-2998 colon and in the test on A549 NSCLC was greater than 100 µM in each case.

Regarding `COc1ccc(/C(=N/NC(N)=O)C(c2ccc(OC)cc2)C2C(=O)Oc3ccccc32)cc1` (stereo not given), the TGI in the test with CCRF-CEM leukemia, in the test with COLO 205 colon, with SF-539 CNS, in the test on RXF 393 renal, with HL-60(TB) leukemia and in the test on SNB-19 CNS was greater than 100 µM in each case. Further, the total growth inhibition concentration (TGI) in the test with HCC-2998 colon and with A549 NSCLC was greater than 100 µM in each case.

On to `O=C(NCCCCCCCCNC(=O)c1cccc2ccccc12)c1cccc2ccccc12`, for which the total growth inhibition concentration (TGI) is greater than 100 µM in the test on CCRF-CEM leukemia; greater than 100 µM in the test on COLO 205 colon; 34 µM in the test with SF-539 CNS; 7.74 µM in the test with RXF 393 renal; greater than 100 µM in the test with HL-60(TB) leukemia; greater than 100 µM in the test with BT-549 breast. In addition, the TGI is greater than 59.5 µM with SNB-19 CNS, greater than 100 µM with HCC-2998 colon and greater than 100 µM with A549 NSCLC.
